In patent US20120219568A1, “EPIDITHIODIOXO[…] USES THEREOF IN TREATING CANCER” (priority 2011, published 2012):

Assays:
[1] = test system: MCF-7; test: MTT growth inhibition, MCF-7; assay type: cell-based; details: Homo sapiens, MCF7, Mammary Carcinoma, MTT assay
Method: (§1) For cell viability assay, cells were seeded in wells of 96-well plates for 2 days and then treated with different concentrations of mushroom extract fractions or purified verticillin A for 2 days. The cells were then incubated with MTT (3-(4,5-dimethylthiazol-2-yl)-2,5-diphenyltetrazolium bromide) using the MTT assay kit (ATCC, Manassas, Va.) according to the manufacturer's instructions.
(§2) To determine whether verticillin A inhibits other types of tumor cell growth, Mammary carcinoma (Bcap-37 and MCF-7), heptocarcinoma (HepG2), cervical (HeLa), liver (SMMC-7721), lung (SPC-A1) cancer cells and T cell leukemia (Jurkat) were cultured in the presence of different concentrations of verticillin A and examined for the efforts of verticillin A on the growth rate of these tumor cells in vitro.

[2] = test system: Jurkat; test: MTT growth inhibition, Jurkat; assay type: cell-based; details: Homo sapiens, T Cell Leukemia, MTT assay
Method: as §1, §2

[3] = test system: multiple types of tumor cell lines; test: Growth inhibition of multiple types of tumor cell lines; assay type: cell-based
Method: as §1, §2

[4] = test system: HepG2 cells; test: DNA fragmentation assay; assay type: cell-based, human; details: HepG2, agarose gel electrophoresis
Method: Tumor cells were lysed in lysis buffer (5 mM Tris-HCl, pH 8.0, 100 mM Ethylenediaminetetraacetic acid (EDTA), 1% (w/v) Sodium dodecyl sulfate (SDS), and proteinase K) at 45° C. for 2 h. RNA was removed by incubation with RNase A. Genomic DNA was extracted by phenol/chloroform/isoamyl alcohol (25:24:1) and precipitated with ethanol. The purified genomic DNA was then analyzed by electrophoresis in a 1.2% agarose gel.
The growth inhibitory effort of the purified verticillin A was examined on HepG2 cells. Tumor cells were cultured in the presence of different concentrations of verticillin A and analyzed for the growth by MTT assay 24 and 72 h later, respectively. […] To determine whether the growth inhibitory effect is due to increased tumor cell death, genomic DNA was isolated from the treated tumor cells and analyzed by agarose gel electrophoresis.

[5] = test system: HepG2 tumor; test: HepG2 tumor growth in athymic mice; assay type: in vivo; details: intravenous injection
Method: To determine whether the growth inhibitory effect of verticillin A can be extended to in vivo tumor growth inhibition, HepG2 cells were injected subcutaneously to athymic mice. Tumor-bearing mice were then treated with verticillin A by intravenous injection.
Athymic mice were subcutaneously inoculated with human hepatoma HepG2 and colon carcinoma SW620 cells, respectively. The tumor-bearing mice were randomized into experimental groups. The control mice were given saline. The treatment group was intravenously injected with verticillin A at the doses of 1 and 2 mg/kg body weight. Tumor size was measured in 2 diameter with micrometer caliper at the indicate times to permit calculation of tumor volume, V=(a×b^2)/2, where “a” is the length and “b” is the width in millimeters. At the end of the experiment, all the animals were sacrificed, The tumor inhibitory rates were calculated using the following formula: [(mean tumor volume of control nude mice−mean tumor volume of treated nude mice)/mean tumor volume of control nude mice]×100%.

[6] = test system: SW620 cells; test: Cytochrome C release; assay type: cell-based, human; details: SW620, combinational treatment of verticillin A and TRAIL
Method: (§3) Tumor cells were lysed in lysis buffer containing 20 mM HEPES, pH 7.4, 20 mM NaCl, 10% glycerol, 1% Triton X-100, and a protease inhibitor cocktail (Calbiochem, La Jolla, Calif.). Cellular proteins were separated by 12% or 4-20% SDS-PAGE gradient gels, transferred to Immobilon-P membranes (Millipore, Bedford, Mass.) or nitrocellulose (Bio-Rad, Hercules, Calif.), and probed with the following primary antibodies: anti-FLIP (Cell Sinnaling, Danvers, Mass.) at 1:250; anti-survivin (Santa Cruz Biotech) at 1:100; anti-cIAP1 (cell signaling) at 1:250; anti-xIAP (cell Signaling) at 1:500; anti-Bad (Cell Signaling) at 1:1000; anti-Bax (Cell Signaling) at 1:2000; anti-Mcl-1 (Santa Cruz) at 1:100); anti-A-CDase (BD Biosciences) at 1:1000; anti-CytC (BD Biosciences) at 1:1000; and β-actin (Sigma, St Louis, Mo.) at 1:8000. The blots were then washed and incubated with horseradish peroxidase-conjugated anti-goat (Santa Cruz Biotech), anti-mouse or rabbit (Amersham-Pharmacia, Piscataway, N.J.) IgGs. Blots were detected using the ECL Plus Western detection kit (Amersham Pharmacia Biotech).

[7] = test system: SW620 cells; test: Sensitization to FasL-induced apoptosis; assay type: cell-based, human; details: SW620, verticillin A pre-treatment then recombinant FasL
Method: Because the Fas-mediated apoptosis and TRAIL-induced apoptosis share similar signaling pathways, it was next tested whether Verticillin A also sensitizes tumor cells to FasL-induced apoptosis. SW620 cells were treated with verticillin A, followed by treatment with recombinant FasL.

[8] = test system: A-CDase; test: A-CDase protein level, Western blot; assay type: cell-based, human; details: after verticillin A treatment
Method: as §3
To elucidate the molecular mechanisms underlying verticillin A sensitization of tumor cells to TRAIL-mediated apoptosis, the protein levels of genes known to function in the mitochondrion-mediated apoptosis pathway were analyzed. […]

[9] = test system: BNIP3; test: BNIP3 expression level; assay type: cell-based, human; details: SW620 and HepG2 cells
Method: Because verticillin A enhances tumor cell apoptosis through the mitochondrion-dependent pathway, the expression levels of apoptosis-related genes of the mitochondrion-mediated apoptosis pathway was analyzed.

[10] = test system: TET1; test: TET1 expression, RT-PCR; assay type: cell-based, human; details: colon carcinoma cells, dose-dependent
Method: FIG. 11A is an acrylamide gel showing that LS411N cells were treated with Verticillin A at the indicated concentrations for 24 h and analyzed for TET1, TET2 and TET3 level by RT-PCR.
TET1 is an enzyme with very recently identified function in converting 5-methylcytosine (5mC) to 5-hydroxylmethylcytosine (5hmC), and eventually to unmodified Cytosine to reverse DNA methylation (Veron N, Peters A H. Epigenetics: Tet proteins in the limelight. Nature 2011; 473:293-4; Ito et al. Tet proteins can convert 5-methylcytosine to 5-formylcytosine and 5-carboxylcytosine. Science 2011; 333:1300-3; Guo et al. Hydroxylation of 5-methylcytosine by TET1 promotes active DNA demethylation in the adult brain. Cell 2011; 145:423-34). […] Thus, Verticillin A is a small molecule TET1 activator. Verticillin A appears to be the first reported small molecule TET1 activator.

Compound: CN1C(=O)[C@]23SS[C@]1(C)C(=O)N2C1Nc2ccccc2[C@@]1(C12c4ccccc4NC1N1C(=O)[C@@]4(C)SS[C@]1(C(=O)N4C)[C@H]2O)[C@@H]3O (stereo partly drawn) [Verticillin A]
- IC50 [1]: 64 nM
- IC50 [2]: 37 nM
- growth of tumor cells in vitro ([3]; Bcap-37, MCF-7, HepG2, HeLa, SMMC-7721, SPC-A1, Jurkat): significantly inhibited the growth of all these tumor cells
- IC50 ([3]; span over the tumor cell lines of Table 1, read-out: IC50 for multiple types of cancer cells): < 200 nM
- genomic DNA fragmentation [4]: induces genomic DNA fragmentation
- HepG2 tumor growth inhibition ([5]; 2 mg/kg body weight): significantly inhibited HepG2 tumor growth
- HepG2 tumor growth inhibition, dose dependence ([5]; 1 and 2 mg/kg body weight): tumor growth inhibitory effects at a dose-dependent manner
- cytochrome C release [6]: dramatically increased cytochrome C release
- sensitization to FasL-induced apoptosis [7]: significantly increases tumor cells to FasL-induced apoptosis
- A-CDase expression level [8]: decreased after verticillin A treatment at a dose-dependent manner
- BNIP3 expression level [9]: increased BNIP3 expression level in a dose-dependent manner
- TET1 expression [10]: up-regulates TET1 expression
